# In patent US7212853B1 (priority 1996, dated 2007):
# Assay: Transdermal electrotransport delivery of goserelin at current densities of 50 and 100 μA/cm^2 (Example 3)
# Format: in vivo, human
# Conditions: for average transdermal goserelin flux: 8 hours, 12 volunteers
# Method: This study was undertaken to evaluate the relationship between current density and drug flux in the transdermal electrotransport delivery of goserelin. The study involved the application of electrotransport devices, applying constant current, to 12 normal male volunteers for a duration of 8 hours.
# The two electrotransport treatment regimens in this study differed only in applied current density levels. The electrotransport devices delivered goserelin through the skin from polyvinyl alcohol (PVOH)-based donor hydrogels having a skin-contact surface area of 4 cm^2. The gels contained an aqueous goserelin solution. The current density levels used in this study were 50 and 100 μA/cm^2. After an 8 hour treatment period, the electrotransport devices were removed. The skin site was then washed to remove any residual goserelin. All 12 volunteers received each treatment seven days apart.
# For each treatment, seven blood samples were taken over a 24 hour period commencing with the application of current from the electrotransport devices. Serum goserelin concentrations from each patient were used to calculate mean drug flux and the mean total amount of drug delivered.
structure (smiles),measurement,setting,value
CC(C)C[C@H](NC(=O)[C@@H](COC(C)(C)C)NC(=O)[C@H](Cc1ccc(O)cc1)NC(=O)[C@H](CO)NC(=O)[C@H](Cc1c[nH]c2ccccc12)NC(=O)[C@H](Cc1cnc[nH]1)NC(=O)[C@@H]1CCC(=O)N1)C(=O)N[C@@H](CCCNC(=N)N)C(=O)N1CCC[C@H]1C(=O)NNC(N)=O [goserelin],average transdermal goserelin flux,"50 μA/cm^2, constant current",5.8 µg/h
same,average transdermal goserelin flux,"100 μA/cm^2, constant current",21.6 µg/h
same,increase in drug flux,current density rises from 50 to 100 μA/cm^2,four
